In brackets after ≈: the same amount, converted by molar mass.

In test [1] the test system is Streptococcus mutans. The test can be described thus: Antibacterial activity against Streptococcus mutans UA159 MTCC 497 after 24 hrs by microdilution method. It is filed as functional. The following applies: UA159 MTCC 497, 24 h.
The subject of test [2] is Candida parapsilosis. The test can be described thus: Antifungal activity against Candida parapsilosis ATCC 22019 after 48 to 72 hrs by microdilution method. Format: functional. The following applies: Lodderomyces parapsilosis.
Test [3] deals with Pichia kudriavzevii. The test can be described thus: Antifungal activity against Candida krusei ATCC 6528 after 48 to 72 hrs by microdilution method. Format: functional.
In test [4] the test system is Candida albicans. In words: Antifungal activity against Candida albicans ATCC 24433 after 48 to 72 hrs by disk diffusion method. It is filed as functional.
In test [5] the test system is Staphylococcus aureus. In words: Antibacterial activity against Staphylococcus aureus ATCC 25923 after 24 hrs by microdilution method. It is filed as functional. The following applies: ATCC 25923, 24 h.
For test [6], the system named is Candida albicans. In words: Antifungal activity against Candida albicans ATCC 24433 after 48 to 72 hrs by microdilution method. Format: functional.
In test [7] the test system is Escherichia coli. The test can be described thus: Antibacterial activity against Escherichia coli ATCC 25922 after 24 hrs by disk diffusion method. Format: functional.
Test [8] has as its system Streptococcus pyogenes. In words: Antibacterial activity against recultured Streptococcus pyogenes after 24 hrs by disk diffusion method. Format: functional.
The subject of test [9] is Staphylococcus aureus. In words: Antibacterial activity against Staphylococcus aureus ATCC 25923 after 24 hrs by disk diffusion method. It is filed as functional.
In test [10] the test system is Salmonella enterica. In words: Antibacterial activity against recultured Salmonella Typhimurium after 24 hrs by microdilution method. It is filed as functional, Salmonella enterica subsp. enterica serovar Typhimurium.
The test system of test [11] is Candida parapsilosis. In words: Antifungal activity against Candida parapsilosis ATCC 22019 after 48 to 72 hrs by disk diffusion method. Format: functional.
Test [12] concerns Pichia kudriavzevii. The test can be described thus: Antifungal activity against Candida krusei ATCC 6528 after 48 to 72 hrs by disk diffusion method. Format: functional.
The subject of test [13] is Streptococcus mutans. The test can be described thus: Antibacterial activity against Streptococcus mutans UA159 MTCC 497 after 24 hrs by disk diffusion method. Format: functional.
Test [14] deals with Escherichia coli. The test can be described thus: Antibacterial activity against Escherichia coli ATCC 25922 after 24 hrs by microdilution method. It is filed as functional. The conditions noted are these: ATCC 25922, 24 h.
Test [15] has as its system Pseudomonas aeruginosa. The test can be described thus: Antibacterial activity against Pseudomonas aeruginosa ATCC 27853 after 24 hrs by microdilution method. Format: functional. The following applies: ATCC 27853, 24 h.
Test [16] has as its system Streptococcus pyogenes. The test can be described thus: Antibacterial activity against recultured Streptococcus pyogenes after 24 hrs by microdilution method. It is filed as functional.
Test [17] concerns Cryptococcus neoformans. The test can be described thus: Antifungal activity Cryptococcus neoformans after 48 to 72 hrs by microdilution method. Format: functional.
The test system of test [18] is Salmonella enterica. In words: Antibacterial activity against recultured Salmonella Typhimurium after 24 hrs by disk diffusion method. Format: functional, Salmonella enterica subsp. enterica serovar Typhimurium.
Test [19] relates to Cryptococcus neoformans. The test can be described thus: Antifungal activity Cryptococcus neoformans after 48 to 72 hrs by disk diffusion method. It is filed as functional.
Test [20] concerns Pseudomonas aeruginosa. In words: Antibacterial activity against Pseudomonas aeruginosa ATCC 27853 after 24 hrs by disk diffusion method. It is filed as functional.
Test [21] deals with Pseudomonas aeruginosa. The test can be described thus: Antibacterial activity against Pseudomonas aeruginosa ATCC 27853 at 30 ug/mL after 24 hrs by disk diffusion method. Format: functional. The following applies: ATCC 27853, 24 h, read-out: DIZ.
The subject of test [22] is Streptococcus mutans. In words: Antibacterial activity against Streptococcus mutans UA159 MTCC 497 at 30 ug/mL after 24 hrs by disk diffusion method. It is filed as functional. The conditions noted are these: UA159 MTCC 497, 24 h, read-out: DIZ.
The subject of test [23] is Salmonella enterica. The test can be described thus: Antibacterial activity against recultured Salmonella Typhimurium at 30 ug/mL after 24 hrs by disk diffusion method. The following applies: read-out: DIZ. Format: functional, Salmonella enterica subsp. enterica serovar Typhimurium.
Test [24] concerns Escherichia coli. In words: Antibacterial activity against Escherichia coli ATCC 25922 at 30 ug/mL after 24 hrs by disk diffusion method. Format: functional. The following applies: ATCC 25922, 24 h, read-out: DIZ.
Test [25] has as its system Streptococcus pyogenes. In words: Antibacterial activity against recultured Streptococcus pyogenes at 30 ug/mL after 24 hrs by disk diffusion method. Format: functional. The conditions noted are these: read-out: DIZ.
Test [26] relates to Staphylococcus aureus. The test can be described thus: Antibacterial activity against Staphylococcus aureus ATCC 25923 at 30 ug/mL after 24 hrs by disk diffusion method. It is filed as functional. The conditions noted are these: ATCC 25923, 24 h, read-out: DIZ.
Test [27] has as its system Cryptococcus neoformans. In words: Antifungal activity Cryptococcus neoformans at 30 ug/mL after 48 to 72 hrs by disk diffusion method. The following applies: read-out: DIZ. Format: functional.
Test [28] relates to Candida parapsilosis. The test can be described thus: Antifungal activity against Candida parapsilosis ATCC 22019 at 30 ug/mL after 48 to 72 hrs by disk diffusion method. The following applies: Lodderomyces parapsilosis, read-out: DIZ. Format: functional.
The subject of test [29] is Candida albicans. In words: Antifungal activity against Candida albicans ATCC 24433 at 30 ug/mL after 48 to 72 hrs by disk diffusion method. The following applies: read-out: DIZ. Format: functional.
Test [30] relates to Pichia kudriavzevii. In words: Antifungal activity against Candida krusei ATCC 6528 at 30 ug/mL after 48 to 72 hrs by disk diffusion method. Format: functional. The conditions noted are these: read-out: DIZ.

As to `CCCCC/C=C\CCC(O)CCCCCCCC(=O)O[C@H]1CC[C@@]2(C)C(=CC[C@H]3[C@@H]4CC[C@H]([C@H](C)CCCC(C)C)[C@@]4(C)CC[C@@H]32)C1` (stereo not given in full), the minimal inhibitory concentration (MIC) in [1] stood at 64 µg/mL (≈ 95.9 µM); in [2] it was 8 µg/mL (≈ 12 µM); in [3], 64 µg/mL (≈ 95.9 µM); in [5], 64 µg/mL (≈ 95.9 µM); in test [6] it was 1 µg/mL (≈ 1.5 µM); in test [10], 128 µg/mL (≈ 192 µM). Moreover, the minimal inhibitory concentration (MIC) in test [14] is 512 µg/mL (≈ 767 µM); in [15] it was 128 µg/mL (≈ 192 µM); in test [16], 128 µg/mL (≈ 192 µM); in test [17], 8 µg/mL (≈ 12 µM). The “diameter of the inhibition zone (DIZ)” value in test [4] is reported as 22.5 mm; in test [7], 9.6 mm; in [8], 16.8 mm; in test [9] it was 17.1 mm; in test [11], 19.8 mm; in [12], 20.7 mm. Besides, the “diameter of the inhibition zone (DIZ)” value is on record as 17.3 mm in test [13], 14.8 mm in [18], 19.1 mm in test [19] and 8.8 mm in test [20].

Regarding `O=C(N[C@H](CO)[C@H](O)c1ccc([N+](=O)[O-])cc1)C(Cl)Cl` [CHLORAMPHENICOL], the minimal inhibitory concentration (MIC) in test [1], in [5], in test [10], in test [14], in test [15] and in [16] was 32 µg/mL (≈ 99 µM) each time. Also, the zone of inhibition at 30 µg/mL stood at 17.1 mm in test [21]; 26.8 mm in test [22]; 25.2 mm in test [23]; 20 mm in test [24]; 22.4 mm in test [25]; 21 mm in test [26].

As for `CCCCCCCC/C=C\CCCCCCCC(=O)O[C@H]1CC[C@@]2(C)C(=CC[C@H]3[C@@H]4CC[C@H]([C@H](C)CCCC(C)C)[C@@]4(C)CC[C@@H]32)C1` [CHOLESTERYL OLEATE], the MIC worked out at 64 µg/mL (≈ 98.3 µM) in [1]; 16 µg/mL (≈ 24.6 µM) in test [2]; 256 µg/mL (≈ 393 µM) in [3]; 64 µg/mL (≈ 98.3 µM) in [5]; 2 µg/mL (≈ 3.07 µM) in [6]; 128 µg/mL (≈ 197 µM) in test [10]. Moreover, the minimum inhibitory concentration (MIC) in [14] amounted to 128 µg/mL (≈ 197 µM); in test [15] it was 128 µg/mL (≈ 197 µM); in test [16] it was 64 µg/mL (≈ 98.3 µM); in test [17], 32 µg/mL (≈ 49.1 µM). Further, the “diameter of the inhibition zone (DIZ)” value in test [4] turned out to be 18.7 mm; in test [7], 16.1 mm; in [8], 17.2 mm; in test [9] it was 17.8 mm; in test [11] it was 15.7 mm; in test [12], 16.8 mm. Besides, the “diameter of the inhibition zone (DIZ)” value in test [13] is 18.9 mm; in test [18], 15.1 mm; in test [19], 15.1 mm; in test [20] it was 14.3 mm.

In the case of `OC(Cn1cncn1)(Cn1cncn1)c1ccc(F)cc1F` [FLUCONAZOLE], the MIC in test [2] turned out to be 8 µg/mL (≈ 26.1 µM); in [3], 64 µg/mL (≈ 209 µM); in [6] it was 1 µg/mL (≈ 3.27 µM); in test [17], 8 µg/mL (≈ 26.1 µM). Moreover, the zone of inhibition at 30 µg/mL came to 19 mm in test [27], 18 mm in [28], 20 mm in [29] and 20 mm in test [30].

Values taken from ChEMBL document CHEMBL1157039, “Synthesis and characterization of novel fatty acid analogs of cholesterol: in vitro antimicrobial activity” (2010).
